Experimental data reported in the NIST ThermoML archive (doi:10.1016/j.fluid.2008.01.004).

Assay: mn = molality of the nth substance listed, in mol/kg
Conditions: 101 kPa, Liquid; for speed of sound: Sing-around technique in a fixed-path interferometer; for molar conductivity: digital conductivity meter

O=P([O-])([O-])[O-].[Na+].[Na+].[Na+] [trisodium phosphate] + O
Conditions | mass density, 283.15 K [kg/m3] | mass density, 288.15 K [kg/m3] | molar conductivity, 283.15 K [S·m2/mol] | molar conductivity, 288.15 K [S·m2/mol] | molar conductivity, 293.15 K [S·m2/mol] | speed of sound, 283.15 K [m/s] | speed of sound, 288.15 K [m/s] | speed of sound, 293.15 K [m/s]
m1 = 0.0026 | – | – | 0.0382 | 0.0395 | 0.0406 | – | – | –
m1 = 0.0039 | – | – | 0.0361 | 0.0369 | 0.0379 | – | – | –
m1 = 0.0053 | – | – | 0.0348 | 0.0363 | 0.038 | – | – | –
m1 = 0.0089 | 1001.51 | 1000.88 | – | – | – | 1450.7 | 1469 | 1485.1
m1 = 0.0105 | 1001.84 | 1001.2 | 0.0306 | 0.0325 | 0.0342 | 1451.2 | 1469.5 | 1485.6
m1 = 0.0116 | 1002.06 | 1001.42 | – | – | – | 1451.5 | 1469.8 | 1486
m1 = 0.0132 | 1002.38 | 1001.74 | 0.0293 | 0.0318 | 0.0333 | 1452 | 1470.2 | 1486.3
m1 = 0.0183 | 1003.44 | 1002.77 | 0.0275 | 0.0292 | 0.0309 | 1453.4 | 1471.6 | 1487.7
m1 = 0.0234 | 1004.45 | 1003.77 | 0.0259 | 0.0281 | 0.0297 | 1455 | 1473.1 | 1489.2
m1 = 0.0342 | 1006.62 | 1005.91 | 0.0234 | 0.0253 | 0.0264 | 1457.8 | 1475.8 | 1491.8
m1 = 0.045 | 1008.77 | 1008.04 | 0.0218 | 0.0236 | 0.0249 | 1460.7 | 1478.6 | 1494.5
m1 = 0.0563 | 1011 | 1010.23 | 0.0211 | 0.0223 | 0.0236 | 1463.6 | 1481.5 | 1497.3
m1 = 0.0662 | 1012.94 | 1012.15 | 0.0197 | 0.0216 | 0.0227 | 1466.1 | 1483.9 | 1499.7
m1 = 0.0767 | – | – | 0.0192 | 0.021 | 0.0218 | – | – | –
m1 = 0.088 | 1017.25 | 1016.4 | 0.0186 | 0.0199 | 0.0209 | 1471.7 | 1489.3 | 1504.9
m1 = 0.0968 | 1018.97 | 1018.1 | 0.0179 | 0.0196 | – | 1473.9 | 1491.5 | 1507
m1 = 0.1086 | 1021.25 | 1020.35 | 0.0178 | 0.0191 | – | 1476.8 | 1494.3 | 1509.7
m1 = 0.1133 | 1022.18 | 1021.28 | 0.0173 | 0.0188 | – | 1477.9 | 1495.4 | 1510.8
m1 = 0.1296 | 1025.36 | 1024.4 | 0.0166 | 0.0181 | – | 1482 | 1499.3 | 1514.6
m1 = 0.141 | 1027.58 | 1026.61 | 0.0161 | 0.0175 | – | 1484.8 | 1502.1 | 1517.3
m1 = 0.1515 | 1029.56 | 1028.56 | 0.0158 | 0.0174 | – | 1487.3 | 1504.5 | 1519.7
m1 = 0.1638 | 1031.95 | 1030.93 | 0.0159 | 0.0174 | – | 1490.3 | 1507.4 | 1522.5
m1 = 0.1755 | 1034.17 | 1033.12 | 0.0155 | 0.0168 | – | 1493.1 | 1510.1 | 1525.2
m1 = 0.1868 | 1036.39 | 1035.32 | 0.0153 | 0.0165 | – | 1496 | 1512.9 | 1527.8
m1 = 0.1954 | 1037.96 | 1036.87 | 0.0154 | 0.0162 | – | 1498 | 1514.8 | 1529.7
m1 = 0.2224 | 1043.23 | 1042.08 | 0.0145 | 0.0153 | – | 1504.6 | 1521.3 | 1536
m1 = 0.2333 | 1045.32 | 1044.14 | 0.0143 | 0.0152 | – | 1507.2 | 1523.9 | 1538.5
m1 = 0.2509 | 1048.59 | 1047.38 | 0.0142 | 0.015 | – | 1511.4 | 1527.9 | 1542.4
